Drawing on ChEMBL document CHEMBL1149448, “Synthesis and structure-activity relationships of a new series of 2alpha-substituted trans-4,5-dimethyl-4-(3-hydroxyphenyl)piperidine as mu-selective opioid antagonists” (Bioorg Med Chem Lett, 2006), this text covers Ki and IC50 for 23 compounds.

Assay [1] concerns the target Delta-type opioid receptor (Homo sapiens, UniProt P41143). The assay can be described thus: Displacement of [3H]diprenorphine from human cloned delta opioid receptor.
Assay [2] has as its target T1, Mu-type opioid receptor (Homo sapiens, UniProt P35372). The assay can be described thus: Inhibition of loperamide-stimulated [35S]GTP-gamma-S binding to membranes containing mu opioid receptor. Format: functional. (In general: GTPγS resists hydrolysis and so accumulates on activated G proteins.)
Assay [3] addresses Kappa-type opioid receptor (Homo sapiens, UniProt P41145). In words: Displacement of [3H]diprenorphine from human cloned kappa opioid receptor.
Assay [4] addresses T1, Mu-type opioid receptor. The assay can be described thus: Displacement of [3H]diprenorphine from human cloned mu opioid receptor. A general note: In a radioligand displacement assay an active substance lowers the binding of a labelled ligand.

Molecules are shown by their SMILES.

Chain of Kappa-type opioid receptor (P41145 whole entry): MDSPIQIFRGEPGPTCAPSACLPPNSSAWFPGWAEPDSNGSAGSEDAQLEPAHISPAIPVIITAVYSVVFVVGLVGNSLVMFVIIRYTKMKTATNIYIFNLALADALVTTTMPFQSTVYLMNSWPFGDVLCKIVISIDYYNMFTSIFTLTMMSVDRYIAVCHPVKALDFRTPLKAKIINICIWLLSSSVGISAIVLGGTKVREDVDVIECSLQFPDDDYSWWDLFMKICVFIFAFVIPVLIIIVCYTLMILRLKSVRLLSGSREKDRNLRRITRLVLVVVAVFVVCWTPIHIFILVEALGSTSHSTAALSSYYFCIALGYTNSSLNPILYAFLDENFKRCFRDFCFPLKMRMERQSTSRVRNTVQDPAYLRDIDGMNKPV
Chain of Delta-type opioid receptor (P41143 whole entry): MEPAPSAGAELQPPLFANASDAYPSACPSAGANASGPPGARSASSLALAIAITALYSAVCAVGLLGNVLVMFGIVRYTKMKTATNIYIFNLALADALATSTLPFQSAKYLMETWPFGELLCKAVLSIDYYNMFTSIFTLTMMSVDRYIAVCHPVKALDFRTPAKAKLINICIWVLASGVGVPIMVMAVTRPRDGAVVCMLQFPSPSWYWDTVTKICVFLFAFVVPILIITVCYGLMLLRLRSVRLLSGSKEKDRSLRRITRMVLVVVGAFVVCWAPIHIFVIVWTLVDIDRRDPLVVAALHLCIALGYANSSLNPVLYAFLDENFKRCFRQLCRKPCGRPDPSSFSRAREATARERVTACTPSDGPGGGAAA
T1 sequence (P35372 whole entry): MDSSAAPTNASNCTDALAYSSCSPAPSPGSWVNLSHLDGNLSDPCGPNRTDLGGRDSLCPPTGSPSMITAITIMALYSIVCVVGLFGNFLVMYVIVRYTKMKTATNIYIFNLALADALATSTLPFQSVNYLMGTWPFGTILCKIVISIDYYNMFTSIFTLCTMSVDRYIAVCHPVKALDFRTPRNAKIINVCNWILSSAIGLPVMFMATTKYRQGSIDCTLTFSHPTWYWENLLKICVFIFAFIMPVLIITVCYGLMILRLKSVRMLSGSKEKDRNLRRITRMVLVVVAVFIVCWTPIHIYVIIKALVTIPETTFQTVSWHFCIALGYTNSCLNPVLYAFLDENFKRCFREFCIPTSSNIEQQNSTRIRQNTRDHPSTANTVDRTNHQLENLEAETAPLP

As to `CC(C)[C@@H]1C[C@@](C)(c2cccc(O)c2)[C@@H](C)CN1CCc1ccccc1`, the Ki in assay [1] is over 1 µM; in assay [3] it was over 1 µM; on Mu-type opioid receptor [4], 0.27 µM. The same compound had an IC50 on Mu-type opioid receptor [2] of 0.62 µM.

With `CCC[C@@H]1C[C@@](C)(c2cccc(O)c2)[C@@H](C)CN1`, the Ki in assay [1] is over 1 µM; in assay [3], 0.69 µM; at Mu-type opioid receptor [4] it was 0.56 µM. The same compound returned an IC50 at Mu-type opioid receptor [2] of over 1 µM.

Take `C[C@H]1CN(CCc2ccccc2)[C@H](c2ccccc2)C[C@@]1(C)c1cccc(O)c1`: the Ki in assay [1] is 0.26 µM; in assay [3], 0.29 µM; at Mu-type opioid receptor [4] it was 0.28 µM. Moreover, the IC50 at Mu-type opioid receptor [2] is over 1 µM.

With `C[C@H]1CN(CCc2ccccc2)[C@H](CCc2ccccc2)C[C@@]1(C)c1cccc(O)c1`, the inhibitory constant (Ki) in assay [1] amounted to 0.61 µM; in assay [3], 0.79 µM; at Mu-type opioid receptor [4] it was 0.16 µM. Moreover, the IC50 on Mu-type opioid receptor [2] is 0.21 µM.

Consider `CCCCN1C[C@H](C)[C@](C)(c2cccc(O)c2)C[C@H]1CCC`, for which the results for the Ki (in assay [1]; in assay [3]; at Mu-type opioid receptor [4]) were over 1 µM, 0.61 µM and 0.55 µM, respectively. Moreover, the IC50 at Mu-type opioid receptor [2] worked out at 0.29 µM.

Turning to `C[C@@H]1C[C@@](C)(c2cccc(O)c2)[C@@H](C)CN1CCc1ccccc1`, the values for the Ki (in assay [1]; in assay [3]; at Mu-type opioid receptor [4]) were 0.065 µM, 0.1 µM and 0.015 µM, respectively. The compound also showed an IC50 at Mu-type opioid receptor [2] of 0.05 µM.

With `C[C@H]1CN(CCc2ccccc2)[C@H](CCNC(=O)c2ccccc2)C[C@@]1(C)c1cccc(O)c1`, the figures for the Ki (in assay [1]; in assay [3]; on Mu-type opioid receptor [4]) were 0.71 µM, 0.2 µM and 0.059 µM, respectively. Besides, at Mu-type opioid receptor [2], the IC50 was determined as 0.13 µM.

For `CCC[C@@H]1C[C@@](C)(c2cccc(O)c2)[C@@H](C)CN1CC`, the inhibition constant Ki is over 1 µM in assay [1] and 0.27 µM in assay [3]. This compound also registered an IC50 on Mu-type opioid receptor [2] of 0.1 µM.

For `CCC[C@@H]1C[C@@](C)(c2cccc(O)c2)[C@@H](C)CN1CCC`, the figures for the Ki (in assay [1]; in assay [3]; on Mu-type opioid receptor [4]) were over 1 µM, 0.36 µM and 0.43 µM, respectively. The same compound showed an IC50 at Mu-type opioid receptor [2] of 0.32 µM.

With `CCC[C@@H]1C[C@@](C)(c2cccc(O)c2)[C@@H](C)CN1CCCc1ccccc1`, the Ki was 0.18 µM in assay [1], 0.074 µM in assay [3] and 0.019 µM on Mu-type opioid receptor [4]. The same compound returned an IC50 on Mu-type opioid receptor [2] of 0.016 µM.

With `CCC[C@@H]1C[C@@](C)(c2cccc(O)c2)[C@@H](C)CN1CCc1ccccc1`, the Ki in assay [1] came out at 0.12 µM; in assay [3] it was 0.11 µM; on Mu-type opioid receptor [4], 0.02 µM. This compound also registered an IC50 on Mu-type opioid receptor [2] of 0.015 µM.

On to `CCC[C@@H]1C[C@@](C)(c2cccc(O)c2)[C@@H](C)CN1Cc1ccccc1`, for which the results for the Ki (in assay [1]; in assay [3]; on Mu-type opioid receptor [4]) were 0.88 µM, 0.36 µM and 0.7 µM, respectively. On Mu-type opioid receptor [2], this compound displayed an IC50 of 0.17 µM.

With `CCCC[C@@H]1C[C@@](C)(c2cccc(O)c2)[C@@H](C)CN1CCc1ccccc1`, the results for the Ki (in assay [1]; in assay [3]; at Mu-type opioid receptor [4]) were 0.58 µM, 0.2 µM and 0.11 µM, respectively. On Mu-type opioid receptor [2], this compound yielded an IC50 of 0.12 µM.

For `C[C@H]1CN(CCc2ccccc2)[C@H](Cc2ccccc2)C[C@@]1(C)c1cccc(O)c1`, the Ki in assay [1] is 0.8 µM; in assay [3], 0.92 µM; at Mu-type opioid receptor [4], 0.29 µM. Moreover, on Mu-type opioid receptor [2], the IC50 came out at 0.28 µM.

With `CC(=O)NCC[C@@H]1C[C@@](C)(c2cccc(O)c2)[C@@H](C)CN1CCc1ccccc1`, the Ki was over 1 µM in assay [1], 0.62 µM in assay [3] and 0.19 µM on Mu-type opioid receptor [4]. Further, the IC50 on Mu-type opioid receptor [2] came out at 0.13 µM.

Take `CCCCCCCN1C[C@H](C)[C@](C)(c2cccc(O)c2)C[C@H]1CCC`: the figures for the inhibitory constant (Ki) (in assay [1]; in assay [3]; on Mu-type opioid receptor [4]) were 0.08 µM, 0.057 µM and 0.013 µM, respectively. The compound also displayed a concentration for half-maximal inhibition (IC50) on Mu-type opioid receptor [2] of 0.009 µM.

For `CCCCCCN1C[C@H](C)[C@](C)(c2cccc(O)c2)C[C@H]1CCC`, the inhibition constant (Ki) in assay [1] came out at 0.34 µM; in assay [3], 0.15 µM; on Mu-type opioid receptor [4] it was 0.047 µM. The IC50 on Mu-type opioid receptor [2] is 0.039 µM.

For `CCC[C@@H]1C[C@@](C)(c2cccc(O)c2)[C@@H](C)CN1C`, the Ki was over 1 µM in assay [1], 0.22 µM in assay [3] and 0.52 µM at Mu-type opioid receptor [4]. At Mu-type opioid receptor [2], this compound showed a concentration for half-maximal inhibition (IC50) of 0.17 µM.

For the compound `C[C@H]1CN(CCc2ccccc2)[C@H](CCCc2ccccc2)C[C@@]1(C)c1cccc(O)c1`, the Ki amounted to 0.32 µM in assay [1], 0.26 µM in assay [3] and 0.23 µM at Mu-type opioid receptor [4]. Also, the IC50 on Mu-type opioid receptor [2] was determined as 0.36 µM.

In the case of `CC[C@@H]1C[C@@](C)(c2cccc(O)c2)[C@@H](C)CN1CCc1ccccc1`, the results for the Ki (in assay [1]; in assay [3]; on Mu-type opioid receptor [4]) were 0.68 µM, 0.71 µM and 0.075 µM, respectively. The IC50 at Mu-type opioid receptor [2] is 0.09 µM.

Consider `C[C@H]1CN(CCc2ccccc2)[C@H](CCN)C[C@@]1(C)c1cccc(O)c1`, for which the Ki was over 1 µM in assay [1], 0.51 µM in assay [3] and 0.78 µM on Mu-type opioid receptor [4]. Also, at Mu-type opioid receptor [2], the IC50 amounted to 0.39 µM.

For `C[C@H]1CN(CCc2ccccc2)[C@H](CCN2CCCC2)C[C@@]1(C)c1cccc(O)c1`, the Ki (in assay [1]; in assay [3]; on Mu-type opioid receptor [4]) was over 1 µM throughout. This compound returned an IC50 on Mu-type opioid receptor [2] of over 1 µM.

For the compound `CCCCCN1C[C@H](C)[C@](C)(c2cccc(O)c2)C[C@H]1CCC`, the figures for the Ki (in assay [1]; in assay [3]; on Mu-type opioid receptor [4]) were over 1 µM, 0.57 µM and 0.38 µM, respectively. At Mu-type opioid receptor [2], this compound yielded an IC50 of 0.21 µM.

One may read the Ki as the equilibrium dissociation constant of an inhibitor or competing ligand from its target. Read a low Ki as tighter binding. As a reminder, the IC50 is the concentration at which inhibition is half-maximal. Lower therefore signals greater potency.
